For twelve molecules, GI50 and TGI results are on record in PubChem BioAssay (NCI).

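A five-concentration, 48-hour dose response in 96-well plates underlies each endpoint, interpolated linearly between surrounding concentrations. Here, GI50 denotes the concentration required for 50% inhibition of growth. TGI is the concentration that stops growth completely.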

Test in all cases: NCI anticancer screen, dose series, 48 h
In assay [1] the test system is CAKI-1 renal.
Assay [2] concerns HOP-92 NSCLC.
Assay [3] has as its system NCI-H460 lung.
In assay [4] the test system is SNB-19 CNS.
Assay [5] concerns U251 CNS.
For assay [6], the system named is UO-31 renal.
Assay [7] has as its system HCC-2998 colon.
Assay [8] concerns OVCAR-5 ovarian.
The test system of assay [9] is UACC-62 melanoma.

Consider `CCOC(=O)c1c2c(n(Cc3ccccc3)c1C)-c1nc[nH]c1C(=O)C2=O`, for which the GI50 in assay [1] is 18.5 µM; in [2], 0.0891 µM; in [3] it was 11.2 µM; in [4], 17 µM; in assay [5], 14.7 µM; in assay [6] it was 14.7 µM. Also, the TGI was 38.5 µM in assay [1]; 18.9 µM in assay [2]; 23.2 µM in assay [3]; 30.7 µM in assay [4]; 27.8 µM in assay [5]; 28.4 µM in [6].

With `CCOC(=O)c1cc2c(OC)cc(OC)cc2oc1=O`, the TGI in [1], in assay [7], in [2], in [3], in [8] and in assay [4] was over 100 µM in each case. In addition, the TGI in assay [5] and in assay [9] was over 100 µM each time.

Consider `C#CCOCCCC(=O)O`, for which the TGI in assay [1], in [2], in [3], in assay [8], in assay [4] and in [5] was over 100 µM in each case. For the same molecule, the TGI in [9] is over 100 µM.

As to `CC(=O)N[C@@H](Cc1ccc(OP(=O)(O)O)cc1)C(=O)N[C@H]1CCC(=O)N2CCC[C@@H](C(=O)NCc3cccc4ccccc34)N2C1=O`, the GI50 in assay [1], in [7], in [3], in [8], in [4] and in [5] was over 25 µM throughout. Besides, the GI50 in assay [9] and in [6] was over 25 µM each time. The TGI in assay [1], in assay [7], in assay [3], in assay [8], in assay [4] and in assay [5] was over 25 µM each time. Also, the TGI in [9] and in assay [6] was over 25 µM in each case.

Turning to `COc1ccc(C(=O)O[C@@H]2CCN3CC[C@H](C)[C@H]23)cc1`, the TGI in assay [1], in assay [2], in [3], in assay [8], in assay [4] and in [5] was over 100 µM in each case. Also, the TGI in assay [9] and in [6] was over 100 µM throughout.

Turning to `CN(CCNc1ccc(C(=N)N)cc1)c1ccc(C(=N)N)cc1`, the GI50 was 2.7 µM in assay [1]; 97.3 µM in assay [7]; 4.74 µM in assay [3]; over 100 µM in assay [8]; 27.8 µM in assay [4]; 30.6 µM in [5]. Also, the GI50 in assay [9] was 32.6 µM; in assay [6], 54.8 µM. Moreover, the TGI is 37.3 µM in assay [1]; over 100 µM in assay [7]; over 100 µM in [3]; over 100 µM in [8]; over 100 µM in assay [4]; over 100 µM in assay [5]. For the same molecule, the TGI in assay [9] and in assay [6] was over 100 µM each time.

As for `COc1ncnn2ccc(-c3cnc4nc(C)n(Cc5nnc(C(C)F)o5)c4c3)c12` (stereo unspecified), the GI50 is 0.0613 µM in assay [1]; 0.308 µM in assay [7]; 0.204 µM in assay [2]; 0.242 µM in assay [3]; 0.343 µM in assay [8]; 0.198 µM in assay [4]. Also, the GI50 in assay [5] is 0.249 µM. Besides, the TGI in assay [1] was over 100 µM; in assay [7], 2.71 µM; in assay [2], 2 µM; in assay [3], over 100 µM; in [4] it was over 100 µM; in [5], over 100 µM.

On to `O=C([CH-]C(=O)c1ccccc1)c1ccccc1.O=C([CH-]C(=O)c1ccccc1)c1ccccc1.[CH2-]CCC.[CH2-]CCC.[Sn+4]`, for which the GI50 in assay [1] is 0.067 µM; in assay [7], 0.519 µM; in assay [3], 1.76 µM; in assay [8] it was 2.06 µM; in assay [4], 0.441 µM; in assay [5], 0.45 µM. Also, the GI50 in assay [9] was 0.558 µM; in assay [6], 1.08 µM. Moreover, the TGI in assay [1] is 0.462 µM; in [7], 1.92 µM; in assay [3], 4.14 µM; in [8], 3.51 µM; in assay [4], 1.67 µM; in assay [5], 1.56 µM. In addition, the TGI was 1.83 µM in assay [9] and 2.29 µM in assay [6].

With `Nc1cc2c(c3ccccc13)C(CCl)CN2C(=O)c1cc2cc(NC(=O)c3cc4ccccc4o3)ccc2[nH]1` (stereo unspecified), the GI50 in assay [1] is over 0.11 µM; in assay [3], 0.000351 µM; in [8], over 0.11 µM. In addition, the TGI in assay [1] is under 0.11 µM; in assay [7], 0.675 µM; in assay [8], 138 µM; in assay [4], 0.408 µM; in [9] it was 0.0206 µM.

In the case of `CN1C[C@@H]2CC(=O)CC[C@@H]2C[C@H]1C#N`, the TGI in assay [1], in [7], in assay [2], in assay [3], in assay [8] and in assay [4] was over 100 µM throughout. Besides, the TGI in [9] and in assay [6] was over 100 µM throughout.

With `OC1CCC(COC(c2ccccc2)(c2ccccc2)c2ccccc2)O1` (stereo unspecified), the TGI was found to be 30.9 µM in [1]; 35.6 µM in [7]; 44.5 µM in assay [3]; 45.2 µM in assay [8]; 40 µM in assay [4]; 36 µM in assay [5]. Further, the TGI in assay [9] was found to be 33.8 µM; in [6], 33.2 µM.

`N#C/C(=C\c1ccc([N+](=O)[O-])cc1)n1nnc2cc(F)c(F)cc21`: the GI50 in assay [1] is 1.54 µM; in [7], 1.67 µM; in assay [3], 2.3 µM; in assay [8], 1.77 µM; in assay [4] it was 2.96 µM; in assay [5], 1.66 µM. Also, the GI50 was 1.66 µM in [9] and 1.25 µM in assay [6]. Further, the TGI in assay [1] was 2.92 µM; in assay [7], 3.36 µM; in assay [3] it was 5.84 µM; in [8], 3.41 µM; in [4], 10.4 µM; in assay [5], 3.27 µM. The TGI was 3.36 µM in [9] and 2.5 µM in assay [6].
